Earlier results, collected in patent US12297168B2, “Compounds useful for treating liver diseases” (ABIONYX PHARMA SA, priority 2019, dated 2025).

System: NASH resolution without worsening of fibrosis
Settings: Phase 3 trial, adults with NASH and fibrosis (interim analysis, RESOLVE-IT)

Question: Which “effect on the primary endpoint of NASH resolution without worsening of fibrosis” value does the source give for CSc1ccc(C(=O)/C=C/c2cc(C)c(OC(C)(C)C(=O)O)c(C)c2)cc1 [elafibranor] here?
Answer: did not demonstrate a statistically significant effect
